The record followed here is patent publication US7935706B2, “Nitrogen-containing heterocycle derivatives substituted with cyclic group” (Shionogi & Co., Ltd., priority 2006, dated 2011).

For the first assay, the target named is T1, NMDA receptor (NR1 subunit and NR2B subunit) (Mus musculus, UniProt P35438+Q01097).
T1 construct: expressed in transfected cells; host or cells: HEK293 cells, transient transfection with pcDNA3.1 plasmids
T1 sequence (Q01097 27-1482, other chains not shown): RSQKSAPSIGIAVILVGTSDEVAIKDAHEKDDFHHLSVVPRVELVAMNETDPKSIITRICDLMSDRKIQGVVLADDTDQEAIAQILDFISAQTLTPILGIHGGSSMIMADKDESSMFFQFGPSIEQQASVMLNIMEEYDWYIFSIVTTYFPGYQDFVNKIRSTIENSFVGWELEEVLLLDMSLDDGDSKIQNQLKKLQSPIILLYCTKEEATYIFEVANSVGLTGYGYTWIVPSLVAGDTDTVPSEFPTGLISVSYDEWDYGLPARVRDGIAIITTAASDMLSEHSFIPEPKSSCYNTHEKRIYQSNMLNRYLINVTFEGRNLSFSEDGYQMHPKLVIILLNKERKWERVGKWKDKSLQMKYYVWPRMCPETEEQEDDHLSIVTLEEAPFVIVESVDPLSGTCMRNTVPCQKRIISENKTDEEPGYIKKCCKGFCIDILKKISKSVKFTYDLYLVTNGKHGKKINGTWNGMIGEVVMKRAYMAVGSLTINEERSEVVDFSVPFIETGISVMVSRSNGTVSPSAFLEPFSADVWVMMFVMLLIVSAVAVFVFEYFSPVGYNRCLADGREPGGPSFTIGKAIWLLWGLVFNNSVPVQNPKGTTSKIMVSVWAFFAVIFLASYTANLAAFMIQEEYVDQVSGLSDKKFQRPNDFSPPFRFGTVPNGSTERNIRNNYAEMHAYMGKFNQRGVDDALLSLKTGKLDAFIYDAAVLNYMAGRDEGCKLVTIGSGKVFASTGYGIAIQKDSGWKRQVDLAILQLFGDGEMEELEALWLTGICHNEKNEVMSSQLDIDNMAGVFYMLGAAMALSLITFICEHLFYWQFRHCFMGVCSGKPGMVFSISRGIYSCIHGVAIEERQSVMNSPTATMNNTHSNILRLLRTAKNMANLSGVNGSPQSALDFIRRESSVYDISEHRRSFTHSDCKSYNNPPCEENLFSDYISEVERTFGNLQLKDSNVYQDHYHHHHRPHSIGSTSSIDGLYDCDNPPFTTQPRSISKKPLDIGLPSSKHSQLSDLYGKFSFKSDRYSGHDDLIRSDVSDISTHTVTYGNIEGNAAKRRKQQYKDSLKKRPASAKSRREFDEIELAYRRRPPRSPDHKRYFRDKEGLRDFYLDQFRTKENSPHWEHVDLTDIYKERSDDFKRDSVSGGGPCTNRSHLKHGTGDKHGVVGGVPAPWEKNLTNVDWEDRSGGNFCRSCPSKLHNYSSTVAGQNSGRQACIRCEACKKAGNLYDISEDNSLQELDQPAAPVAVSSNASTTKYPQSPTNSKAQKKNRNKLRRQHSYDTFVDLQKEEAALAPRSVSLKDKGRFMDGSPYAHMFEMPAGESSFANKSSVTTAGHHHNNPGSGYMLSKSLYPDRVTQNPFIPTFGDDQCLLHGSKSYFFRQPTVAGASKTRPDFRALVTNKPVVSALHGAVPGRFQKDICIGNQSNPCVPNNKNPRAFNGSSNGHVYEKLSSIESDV
As to the kind of experiment: Measurement of expression of NMDA receptor and Ca ion influx amount (glutamic acid/glycine-induced, HEK293 cell co-expressing NR1 and NR2B subunits, Fluo-3/AM). The settings on record: Ca ion influx induced with 20 μM glutamic acid/2 μM glycine, HEK293 cell with mouse NR1/NR2B; read-out: Ca2+ IC50. Format: cell-based. The method, then: Measurement of Expression of NMDA Receptor and Ca Ion Influx Amount
A complementary DNA (cDNA) of a mouse NMDA receptor subunit was transiently introduced into a HEK293 cell and, after 1 day from introduction, change in a glutamic acid/glycine-induced intracelluar Ca amount was measured using a Ca ion reactive fluorescent coloring matter.
The HEK293 cell was cultured, and passaged using a modified Dulbecco's Eagle medium (DMEM, low glucose).
The HEK293 cell (20,000/well) was seeded on a 96-well plate, a NR1 subunit and a NR2B subunit of the NMDA receptor incorporated into the pcDNA3.1 plasmid were transiently introduced into a cell, and the subunits were co-expressed. An introduction amount of a DNA was 0.025 μg in the case of the NR1 subunit, and 0.075 μg in the case of NR2B subunit per well. For the cell after introduction, cell death was inhibited using 50 μM of the NMDA receptor antagonist MK-801.
For adjusting a test compound and washing a cell, Krebs/Ringer/Hepes buffer (KRH, Ca: 5 mM) was used.
After 1 day from introduction, the NMDA receptor antagonist MK-801 was washed out using the KRH buffer, and a Ca ion indication fluorescent coloring matter Fluo-3/AM was made to be taken into the cell. Ca ion influx was induced with 20 μM glutamic acid/2 μM glycine. Change in a fluorescent amount due to Ca ion influx into the cell was measured at excitation of 480 nm using a fluorescent imaging system FDSS 3000.
From a measured value of the test compound, a Ca ion influx inhibition rate (%) was obtained by the following equation, and a dose at which influx is inhibited 50% (IC50) was calculated.
Ca ion influx inhibition rate(%)=100−[(fluorescent amount in the presence of test compound−background fluorescent amount)/(total fluorescent amount−background fluorescent)]×100
As for `O=C(CC1CCN(c2ccc(C(F)(F)F)cc2)CC1)Nc1ccc2[nH]c(=O)oc2c1` [Compound I-8], the IC50 worked out at 48 nM.
Turning to `O=C(NCC1CCN(c2ccc(C(F)(F)F)cc2)CC1)c1ccc2[nH]c(=O)oc2c1` [Compound I-11], the IC50 is 69 nM.
As for `O=C(C=C1CCN(c2ccc(C(F)(F)F)cc2)CC1)Nc1ccc2[nH]c(=O)oc2c1` [Compound I-16], the IC50 stood at 37 nM.
For the compound `O=C(CCC1CCN(c2ccc(C(F)(F)F)cc2)CC1)Nc1ccc(=O)[nH]c1` [Compound I-21], the IC50 was 37 nM.
Same read-out and setting: with `O=C(Nc1ccc2[nH]c(=O)oc2c1)NC1CCN(c2ccc(C(F)(F)F)cc2)CC1` [Compound I-23] the figure was 25 nM.
As for `O=C(Nc1ccc2[nH]c(=O)oc2c1)C(O)C1CCN(c2ccc(C(F)(F)F)cc2)CC1` (centres unmarked) [Compound I-25], the IC50 came to 63 nM.
For the compound `O=C(Nc1ccc2[nH]c(=O)oc2c1)C(=O)C1CCN(c2ccc(C(F)(F)F)cc2)CC1` [Compound I-26], the IC50 was determined as 48 nM.
Same read-out and setting: the value for `O=C(CC1(O)CCN(c2ccc(C(F)(F)F)cc2)CC1)Nc1ccc2[nH]c(=O)oc2c1` [Compound I-30] was 4 nM; that for `O=C(C=C1CCN(c2ccc(F)cc2)CC1)Nc1ccc2[nH]c(=O)oc2c1` [Compound I-33] was 37 nM.
Same read-out and setting: with `O=C(CC1(O)CCN(c2ccc(Cl)cc2)CC1)Nc1ccc2[nH]c(=O)oc2c1` [Compound I-34] the figure was 20 nM; with `CC(C)c1ccc(N2CCC(O)(CC(=O)Nc3ccc4[nH]c(=O)oc4c3)CC2)cc1` [Compound I-40], 15 nM; with `O=C(C=C1CCN(c2cc(C(F)(F)F)ccn2)CC1)Nc1ccc2[nH]c(=O)oc2c1` [Compound I-41], 92 nM.
In the case of `O=C(Nc1ccc2[nH]c(=O)oc2c1)C(F)=C1CCN(c2ccc(C(F)(F)F)cc2)CC1` [Compound I-42], the IC50 came out at 13 nM.
The same measure, in the same setting: the value for `O=C(C=C1CCN(c2ccc(C(F)(F)F)cn2)CC1)Nc1ccc2[nH]c(=O)oc2c1` [Compound I-43] was 9 nM; that for `O=C(C=C1CCN(c2ccc(Cl)cn2)CC1)Nc1ccc2[nH]c(=O)oc2c1` [Compound I-45] was 23 nM; that for `O=C(CC1=CCN(c2ccc(C(F)(F)F)cc2)CC1)Nc1ccc2[nH]c(=O)oc2c1` [Compound I-53] was 67 nM.
Same read-out and setting: the value for `O=C(Nc1ccc2[nH]c(=O)oc2c1)C(=O)N1CCN(c2ccc(C(F)(F)F)cc2)CC1` [Compound I-55] was 7 nM; that for `O=C(CC1(O)CCN(c2ccc(C(F)(F)F)cc2)CC1)Nc1ccc2[nH]c(=O)sc2c1` [Compound I-70] was 15 nM; that for `O=C(Nc1cnc2[nH]c(=O)oc2c1)C(=O)N1CCN(c2ccc(C(F)(F)F)cc2)CC1` [Compound I-74] was 39 nM.
Same read-out and setting: the value for `O=C(NCC1=CCN(c2ccc(C(F)(F)F)cc2)CC1)c1ccc2[nH]c(=O)sc2c1` [Compound I-78] was 31 nM; that for `O=C(CC1(O)CCN(c2ccc(F)c(C(F)(F)F)c2)CC1)Nc1ccc2[nH]c(=O)sc2c1` [Compound I-80] was 52 nM.
Consider `O=C(CC1(O)CCN(c2ccc(F)c(C(F)(F)F)c2)CC1)Nc1ccc2[nH]c(=O)oc2c1` [Compound I-81], for which the IC50 was determined as 62 nM.
The same measure, in the same setting: with `O=C(Nc1ccc2[nH]c(=O)sc2c1)C(=O)N1CCN(c2ccc(F)cc2)CC1` [Compound I-89] the figure was 87 nM.
Same read-out and setting: the value for `O=C(Nc1cnc2[nH]c(=O)oc2c1)C(=O)N1CCN(c2ccc(Br)cc2)CC1` [Compound I-94] was 51 nM.
Still for that read-out and setting: with `O=C(Nc1ccc2[nH]c(=O)oc2c1)C(=O)N1CCN(c2ccc(F)c(Cl)c2)CC1` [Compound I-110] the figure was 9 nM; with `O=C(NCC1CCN(c2ccc(OC(F)(F)F)cc2)CC1)c1ccc2[nH]c(=O)oc2c1` [Compound I-122], 24 nM.
Regarding `O=C(NCC1CCN(c2ccc(Cl)c(Cl)c2)CC1)c1ccc2[nH]c(=O)oc2c1` [Compound I-138], the IC50 came to 44 nM.
Still for that read-out and setting: the value for `O=C(NCC1CCN(c2ccc(Cl)c(F)c2)CC1)c1ccc2[nH]c(=O)oc2c1` [Compound I-140] was 44 nM; that for `O=C(Nc1cnc2[nH]c(=O)oc2c1)C(=O)N1CCCN(c2ccc(Cl)c(F)c2)CC1` [Compound I-155] was 53 nM.
The same measure, in the same setting: with `O=C(CC1(O)CCN(c2ccc(Cl)c(Cl)c2)CC1)Nc1cnc2[nH]c(=O)oc2c1` [Compound I-197] the figure was 59 nM.

Staying with this assay, now noted: same Ca ion influx test; read-out: IC50 (Ca ion influx inhibition).
As for `O=C(Nc1cnc2[nH]c(=O)oc2c1)C(=O)N1CCN(c2ccc(Cl)cc2)CC1` [Compound I-76], the IC50 was at most 100 nM.
The same measure, in the same setting: with `O=C(Nc1cnc2[nH]c(=O)oc2c1)C(=O)N1CCN(c2ccc(F)c(Cl)c2)CC1` [Compound I-111] the figure was at most 100 nM.
Same read-out and setting: with `C[C@H]1CN(C(=O)C(=O)Nc2ccc3[nH]c(=O)oc3c2)CCN1c1ccc(Cl)cc1` [Compound I-176] the figure was at most 100 nM.
The same measure, in the same setting: with `C[C@@H]1CN(C(=O)C(=O)Nc2ccc3[nH]c(=O)oc3c2)CCN1c1ccc(OC(F)(F)F)cc1` [Compound I-212] the figure was at most 100 nM.

For the next assay, the target named is T2, NR1/NR2B receptor (Rattus norvegicus, UniProt P35439+Q00960).
T2 construct: from tissue; host or cells: rat cerebral cortex membranes (male Slc: Wistar rat)
T2 sequence (Q00960 27-1482, other chains not shown): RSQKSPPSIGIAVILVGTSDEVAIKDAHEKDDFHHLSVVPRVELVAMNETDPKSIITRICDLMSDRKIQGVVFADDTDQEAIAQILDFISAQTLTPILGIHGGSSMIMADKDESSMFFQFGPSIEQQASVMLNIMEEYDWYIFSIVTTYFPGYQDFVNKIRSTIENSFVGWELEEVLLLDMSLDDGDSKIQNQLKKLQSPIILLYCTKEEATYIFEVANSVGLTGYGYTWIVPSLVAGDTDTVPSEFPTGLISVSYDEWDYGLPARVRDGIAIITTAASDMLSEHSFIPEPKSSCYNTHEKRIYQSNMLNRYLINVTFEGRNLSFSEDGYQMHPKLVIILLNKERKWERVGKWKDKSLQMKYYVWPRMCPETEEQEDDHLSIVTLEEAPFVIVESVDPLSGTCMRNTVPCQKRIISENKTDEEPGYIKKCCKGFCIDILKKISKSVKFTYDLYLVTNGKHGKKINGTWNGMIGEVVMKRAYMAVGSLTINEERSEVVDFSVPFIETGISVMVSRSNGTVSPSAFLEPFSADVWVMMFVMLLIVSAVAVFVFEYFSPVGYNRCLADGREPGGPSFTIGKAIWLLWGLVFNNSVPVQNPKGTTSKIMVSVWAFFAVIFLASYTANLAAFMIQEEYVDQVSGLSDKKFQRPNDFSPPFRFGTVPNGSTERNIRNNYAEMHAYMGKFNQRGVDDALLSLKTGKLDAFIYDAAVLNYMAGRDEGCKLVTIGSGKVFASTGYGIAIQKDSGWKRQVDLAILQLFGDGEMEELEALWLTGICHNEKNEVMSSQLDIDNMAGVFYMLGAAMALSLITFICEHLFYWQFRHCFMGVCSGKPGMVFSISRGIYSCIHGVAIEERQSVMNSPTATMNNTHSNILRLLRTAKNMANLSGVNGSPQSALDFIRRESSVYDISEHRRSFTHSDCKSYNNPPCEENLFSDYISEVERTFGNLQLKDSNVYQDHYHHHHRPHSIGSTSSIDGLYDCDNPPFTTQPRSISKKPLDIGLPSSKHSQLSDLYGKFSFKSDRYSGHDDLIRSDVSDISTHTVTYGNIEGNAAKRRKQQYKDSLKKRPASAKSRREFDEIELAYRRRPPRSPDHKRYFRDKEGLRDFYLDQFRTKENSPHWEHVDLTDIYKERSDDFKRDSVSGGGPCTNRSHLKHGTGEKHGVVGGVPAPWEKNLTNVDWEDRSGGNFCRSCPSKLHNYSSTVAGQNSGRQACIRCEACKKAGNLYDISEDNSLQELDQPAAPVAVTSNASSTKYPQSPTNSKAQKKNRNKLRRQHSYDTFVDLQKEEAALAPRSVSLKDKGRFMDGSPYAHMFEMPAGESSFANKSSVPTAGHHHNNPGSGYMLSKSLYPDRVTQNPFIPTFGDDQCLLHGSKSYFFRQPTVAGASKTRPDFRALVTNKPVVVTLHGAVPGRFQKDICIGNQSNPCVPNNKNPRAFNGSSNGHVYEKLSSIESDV
Description: Test of binding with NMDA receptor (NR1/NR2B receptor): competition with [3H]-Ifenprodil on rat cerebral cortex membrane specimen. To be noted: [3H]-Ifenprodil 5 nM, GBR-12909 3 μM, rat cerebral cortex membranes, ice temperature 120 minutes; read-out: NR2B (IC50 μM). The method, then: Test of Binding with NMDR Receptor (NR1/NR2B Receptor)
Using Ifenprodil which is an antagonist specific for a NR1/NR2B subtype receptor as a ligand, an experiment of competition between a receptor and a test compound was performed.
Using a male Slc: Wistar rat as an animal, a brain was isolated after decapitation, and a cerebral cortex was fractionated. The cerebral cortex was homogenized with a 20-fold amount of an ice-cooled 50 mM Tris/HCl buffer (pH 7.4), and the homogenate was centrifuged at 4° C. and 27,500×g for 10 minutes. The resulting precipitate was suspended in the same buffer, and this was again centrifuged. This operation was repeated for three times, the resulting precipitate was suspended in a buffer, and this was stored at −80° C. Immediately before an experiment, the frozen suspension was thawed at room temperature, this was centrifuged at 4° C. and 27,500×g for 10 minutes, and the resulting precipitate was suspended in a buffer. Further, the suspension was diluted 10-fold with a buffer, and this was used as a membrane specimen in an experiment. In a binding experiment, to 470 μl of the membrane specimen were added […] of each of test compounds having different concentrations, 10 μl of a labeled ligand [^3H]-Ifenprodil and 10 μl GBR-12909, followed by incubation at an ice temperature for 120 minutes. A concentration of [^3H]-Ifenprodil of the labeled ligand was finally 5 nM, and a concentration of GBR-12909 was finally 3 μM. For measuring a total binding amount, DMSO as a solvent was used and, for measuring a non-specific binding amount, 100 μM Ifenprodil was used. GBR-12909 was added in order to block binding of [^3H]-Ifenprodil to non-polyamine-sensitive site. After incubation, a bound formand a free foramwere separated using Whatman GF/C filter (manufactured by Whatman), and the filter was washed with 2.5 ml ice-cooled buffer four times. The filter was immersed in liquid scintillation (Cryasol I, manufactured by Nacalai tesque), and radioactivity (dpm) was measured with a liquid scintillation counter. From a measured value, a binding inhibition rate (%) was obtained by the following equation, and a dose at which binding is inhibited 50% (IC50) was calculated. A formula of GBR-12909 (vanoxerine) is shown below.
Binding inhibition rate(%)=100−[(binding amount in the presence of test compound−non-specific binding amount)/(total binding amount−non-specific binding amount)]×100
Consider `O=C(CCC1CCN(c2ccc(C(F)(F)F)cc2)CC1)Nc1ccc(=O)[nH]c1` [Compound I-21], for which the IC50 turned out to be 0.096 µM.
On the same count and under the same terms, with `O=C(Nc1ccc2[nH]c(=O)oc2c1)NC1CCN(c2ccc(C(F)(F)F)cc2)CC1` [Compound I-23] the figure was 0.04 µM; with `O=C(CC1(O)CCN(c2ccc(C(F)(F)F)cc2)CC1)Nc1ccc2[nH]c(=O)oc2c1` [Compound I-30], 0.077 µM; with `O=C(Nc1ccc2[nH]c(=O)oc2c1)C(F)=C1CCN(c2ccc(C(F)(F)F)cc2)CC1` [Compound I-42], 0.107 µM.
Same read-out and setting: the value for `O=C(C=C1CCN(c2ccc(C(F)(F)F)cn2)CC1)Nc1ccc2[nH]c(=O)oc2c1` [Compound I-43] was 0.017 µM; that for `O=C(Nc1ccc2[nH]c(=O)oc2c1)C(=O)N1CCN(c2ccc(C(F)(F)F)cc2)CC1` [Compound I-55] was 0.025 µM.
Still for that read-out and setting: with `O=C(CC1(O)CCN(c2ccc(C(F)(F)F)cc2)CC1)Nc1ccc2[nH]c(=O)sc2c1` [Compound I-70] the figure was 0.068 µM; with `O=C(Nc1ccc2[nH]c(=O)[nH]c2c1)C(=O)N1CCN(c2ccc(F)cc2)CC1` [Compound I-85], 0.067 µM; with `O=C(C=C1CCN(c2ccc(Cl)c(F)c2)CC1)Nc1ccc2[nH]c(=O)oc2c1` [Compound I-188], 0.021 µM.
Consider `O=C(C=C1CCN(c2ccc(F)c(F)c2)CC1)Nc1ccc2[nH]c(=O)oc2c1` [Compound I-192], for which the IC50 worked out at 0.052 µM.
On the same count and under the same terms, the value for `O=C(Nc1ccc2[nH]c(=O)oc2c1)C(=O)N1CCN(c2ccc(C(F)(F)F)nc2)CC1` [Compound I-198] was 0.073 µM; that for `O=C1Cc2cc(NC(=O)C(=O)N3CCN(c4ccc(Cl)c(F)c4)CC3)ccc2N1` [Compound I-200] was 0.081 µM.
Still for that read-out and setting: the value for `O=C1Cc2cc(NC(=O)C(=O)N3CCN(c4ccc(C(F)(F)F)c(F)c4)CC3)ccc2N1` [Compound I-201] was 0.074 µM.

Staying with this assay, now noted: same binding test; read-out: IC50 (binding with NR1/NR2B receptor).
With `O=C(C=C1CCN(c2ccc(Cl)cn2)CC1)Nc1ccc2[nH]c(=O)oc2c1` [Compound I-45], the IC50 was at most 0.1 µM.
`O=C(CC1CCN(c2ccc(OC(F)(F)F)cc2)CC1)Nc1ccc2[nH]c(=O)oc2c1` [Compound I-226]: the IC50 is at most 0.1 µM.
On the same count and under the same terms, with `COc1ccc(N2CCN(C(=O)C(=O)Nc3ccc4[nH]c(=O)oc4c3)CC2)cc1F` [Compound I-232] the figure was at most 0.1 µM; with `O=C(CN1CCN(c2ccc(C(F)(F)F)cc2)CC1)Nc1ccc2[nH]c(=O)oc2c1` [Compound I-235], at most 0.1 µM; with `O=C(CC1CCN(c2ccc(OC(F)F)cc2)CC1)Nc1ccc2[nH]c(=O)oc2c1` [Compound I-239], at most 0.1 µM.
The same measure, in the same setting: the value for `C[C@@H]1CN(c2ccc(Cl)cn2)CCN1C(=O)C(=O)Nc1ccc2[nH]c(=O)oc2c1` [Compound I-241] was at most 0.1 µM.
